Laboratory results taken from US11718631B2, “Sulphonamides and compositions thereof for treating conditions associated with NLRP activity” (Novartis AG, priority 2017, dated 2023).
pIC50: −log10 of the molar value.

These molecules were tested against T1, NLRP3 (Homo sapiens, UniProt Q96P20) (assay: IL-1β production in PMA-differentiated THP-1 cells stimulated with gramicidin (hTHP-1 assay)). Settings: hTHP-1 assay containing 2% fetal bovine serum; average IC50, class symbols; read-out: NLRP3 Antagonist, human THP1 NLRP3, IL-1b, Normalized: GeoMean IC50.
T1 construct: IL-1β Production in PMA-Differentiated THP-1 Cells Stimulated with Gramicidin; host or cells: THP-1 cells, PMA-differentiated
Assay type: cell-based
Procedure: IL-1β Production in PMA-Differentiated THP-1 Cells Stimulated with Gramicidin.
THP-1 cells were purchased from the American Type Culture Collection and sub-cultured according to instructions from the supplier. […] Prior to the experiment THP-1 were treated with PMA (Phorbol 12-myristate 13-acetate) (20 ng/ml) for 16-18 hours. On the day of the experiment the media was removed and adherent cells were detached with trypsin for 5 minutes. […] A vehicle only control was run concurrently with each experiment. Final DMSO concentration was 0.38%.
THP-1 cells were purchased from the American Type Culture Collection and sub-cultured according to instructions from the supplier. […] Prior to the experiment THP-1 were treated with PMA (Phorbol 12-myristate 13-acetate) (20 ng/ml) for 16-18 hours. Compounds were dissolved in dimethyl sulfoxide (DMSO) to generate a 30 mM stock. On the day of the experiment the media was removed and adherent cells were detached with trypsin for 5 minutes. […] Final DMSO concentration was at 0.37%. Cells were incubated with compounds for 1 hour and then stimulated with gramicidin (5 μM) (Enzo) for 2 hours. Plates were then centrifuged at 340 g for 5 min. Cell free supernatant (40 μL) was collected using a 96-channel PlateMaster (Gilson) and the production of IL-1p was evaluated by HTRF (cisbio).
IL-1p Production in PMA-Differentiated THP-1 Cells Stimulated with Gramicidin.
THP-1 cells were purchased from the American Type Culture Collection and sub-cultured according to instructions from the supplier. […] Prior to the experiment, compounds were dissolved in dimethyl sulfoxide (DMSO) to generate a 30 mM stock. […] DMSO was backfilled in the plate to achieve a final DMSO assay concentration of 0.37%. The plate was then sealed and stored at room temperature until required.
THP-1 cells were treated with PMA (Phorbol 12-myristate 13-acetate) (20 ng/ml) for 16-18 hours. On the day of the experiment the media was removed and adherent cells were detached with trypsin for 5 minutes. […] The plates were incubated for 18 h at 4° C. and read using the preset HTRF program (donor emission at 620 nm, acceptor emission at 668 nm) of the SpectraMax i3x spectrophotometer (Molecular Devices, software SoftMax 6).

T1 sequence (Q96P20 whole entry): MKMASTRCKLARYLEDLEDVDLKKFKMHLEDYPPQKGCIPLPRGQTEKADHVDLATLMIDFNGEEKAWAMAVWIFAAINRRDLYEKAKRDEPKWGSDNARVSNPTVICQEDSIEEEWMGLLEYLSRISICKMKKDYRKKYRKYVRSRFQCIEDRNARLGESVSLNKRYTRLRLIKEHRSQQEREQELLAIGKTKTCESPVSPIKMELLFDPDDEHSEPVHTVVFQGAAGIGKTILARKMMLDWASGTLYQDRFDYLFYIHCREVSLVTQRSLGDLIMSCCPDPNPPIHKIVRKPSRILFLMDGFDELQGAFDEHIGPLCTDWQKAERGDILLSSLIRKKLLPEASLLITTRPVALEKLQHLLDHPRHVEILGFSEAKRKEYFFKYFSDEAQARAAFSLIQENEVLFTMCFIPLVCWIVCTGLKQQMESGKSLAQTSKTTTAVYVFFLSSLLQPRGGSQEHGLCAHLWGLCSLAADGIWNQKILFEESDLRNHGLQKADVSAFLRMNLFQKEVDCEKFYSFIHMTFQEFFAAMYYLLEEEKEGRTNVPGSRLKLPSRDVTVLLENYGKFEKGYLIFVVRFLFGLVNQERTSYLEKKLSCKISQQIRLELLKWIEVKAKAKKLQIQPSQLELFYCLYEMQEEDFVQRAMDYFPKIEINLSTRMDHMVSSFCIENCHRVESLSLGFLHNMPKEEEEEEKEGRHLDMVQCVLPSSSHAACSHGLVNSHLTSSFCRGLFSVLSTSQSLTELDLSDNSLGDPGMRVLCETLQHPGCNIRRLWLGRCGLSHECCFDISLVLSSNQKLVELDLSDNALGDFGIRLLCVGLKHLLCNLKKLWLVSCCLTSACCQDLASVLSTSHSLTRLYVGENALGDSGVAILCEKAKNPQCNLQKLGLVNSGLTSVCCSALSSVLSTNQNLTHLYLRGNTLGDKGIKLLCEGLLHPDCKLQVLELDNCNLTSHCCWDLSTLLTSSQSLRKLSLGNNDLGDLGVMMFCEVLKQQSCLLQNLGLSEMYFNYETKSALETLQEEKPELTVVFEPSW

How did the pIC50 turn out when Cc1ccc(-c2cc(C(C)C)c(CC(=O)NS(=O)(=O)c3ccc(CN(C)C)cc3)c(C(C)C)c2)cc1 [Compound 110, N-[4-[(dimethylamino)methyl]phenyl] sulfonyl-2-[4-(4-methylphenyl)-2,6-di(propan-2-yl)phenyl] acetamide] was run?
Its pIC50 is 5.30 to 6.00.

How did the pIC50 turn out when Cc1cc(-c2cc(C(C)C)c(CC(=O)NS(=O)(=O)c3ccc(CN(C)C)cc3)c(C(C)C)c2)ccc1Cl [Compound 146] was run?
Its pIC50 is 6.00 to 6.70.

With CC(C)c1cc(-c2cccc(Cl)c2)cc(C(C)C)c1CC(=O)NS(=O)(=O)c1ccc(CN(C)C)cc1 [Compound 108, 2-[4-(3-chlorophenyl)-2,6-di(propan-2-yl)phenyl]-N-[4-[(dimethylamino)methyl]phenyl] sulfonylacetamide] as the molecule, how does the pIC50 read?
The pIC50 was 6.00 to 6.70.

CC(C)c1cc(-c2ccccc2OCc2ccccc2)cc(C(C)C)c1CC(=O)NS(=O)(=O)c1ccc(CN(C)C)cc1 [Compound 102, N-[4-[(dimethylamino)methyl]phenyl] sulfonyl-2-[4-(2-phenylmethoxy-phenyl)-2,6-di(propan-2-yl)phenyl]acetamide] was tested. Which pIC50 did it give?
Its pIC50 is 4.52 to 5.30.

Cc1cc(-c2cc(C(C)C)c(CC(=O)NS(=O)(=O)c3ccc(CN(C)C)cc3)c(C(C)C)c2)ccc1F [Compound 101] was tested. Which pIC50 did it give?
The pIC50 was 6.00 to 6.70.

How did the pIC50 turn out when CC(C)c1cc(C2CCc3ccccc32)cc(C(C)C)c1CC(=O)NS(=O)(=O)c1ccc(CN(C)C)cc1 (centres unmarked) [Compound 322, 2-[4-(2,3-dihydro-1H-inden-1-yl)-2,6-bis(propan-2-yl)phenyl]-N-{4-[(dimethylamino)methyl]benzene-sulfonyl}acetamide] was run?
Its pIC50 is 6.00 to 6.70.

CC(C)c1cc(-c2ccc(Cl)cc2)cc(C(C)C)c1CC(=O)NS(=O)(=O)c1ccc(CN(C)C)cc1 [Compound 116, 2-[4-(4-chlorophenyl)-2,6-di(propan-2-yl)phenyl]-N-[4-[(dimethylamino)methyl]phenyl] sulfonylacetamide] was tested. Which pIC50 did it give?
Its pIC50 is 5.30 to 6.00.

With Cc1ccc(-c2cc(C(C)C)c(CC(=O)NS(=O)(=O)c3ccc(CN(C)C)cc3)c(C(C)C)c2)cc1F [Compound 111, N-[4-[(dimethylamino)methyl]phenyl] sulfonyl-2-[4-(3-fluoro-4-methylphenyl)-2,6-di(propan-2-yl)phenyl]acetamide] as the molecule, how does the pIC50 read?
Its pIC50 is 5.30 to 6.00.

CC(C)c1cc(-c2ccc3ccccc3c2)cc(C(C)C)c1CC(=O)NS(=O)(=O)c1ccc(CN(C)C)cc1 [Compound 139, N-[4-[(dimethylamino)methyl]phenyl] sulfonyl-2-[4-naphthalen-2-yl-2,6-di(propan-2-yl)phenyl] acetamide] was tested. Which pIC50 did it give?
Its pIC50 is 6.70 to 7.40.

CC(C)c1cc(-c2ccccc2S(C)(=O)=O)cc(C(C)C)c1CC(=O)NS(=O)(=O)c1ccc(CN(C)C)cc1 [Compound 125, N-[4-[(dimethylamino)methyl]phenyl] sulfonyl-2-[4-(2-methylsulfonyl-phenyl)-2,6-di(propan-2-yl)phenyl]acetamide] was tested. Which pIC50 did it give?
The pIC50 was 4.52 to 5.30.

How did the pIC50 turn out when CC(C)c1cc(CC2CCCCC2)cc(C(C)C)c1CC(=O)NS(=O)(=O)c1ccc(CN(C)C)cc1 [Compound 378, 2-[4-(cyclohexylmethyl)-2,6-bis(propan-2-yl)phenyl]-N-{4-[(dimethylamino)methyl]benzenesulfonyl}acetamide] was run?
Its pIC50 is 4.52 to 5.30.

How did the pIC50 turn out when CC(C)c1cc(C2CCCC2)cc(C(C)C)c1CC(=O)NS(=O)(=O)c1ccc(CN(C)C)cc1 [Compound 355, 2-[4-cyclopentyl-2,6-bis(propan-2-yl)phenyl]-N-{4-[(dimethylamino)methyl]benzene-sulfonyl}acetamide] was run?
The pIC50 was 4.52 to 5.30.

With CC(C)c1cc(Br)cc(C(C)C)c1CC(=O)NS(=O)(=O)c1ccc(CN(C)C)cc1 [Compound 148] as the molecule, how does the pIC50 read?
Its pIC50 is 5.30 to 6.00.

CC(C)c1cc(C2CCc3ccccc3C2)cc(C(C)C)c1CC(=O)NS(=O)(=O)c1ccc(CN(C)C)cc1 (centres unmarked) [Compound 314, 2-[2,6-bis(propan-2-yl)-4-(1,2,3,4-tetrahydronaphthalen-2-yl)phenyl]-N-{4-[(dimethylamino)methyl]benzene-sulfonyl}acetamide] was tested. Which pIC50 did it give?
Its pIC50 is 5.30 to 6.00.

With CC(C)c1cc(-c2ccc(F)c(Cl)c2)cc(C(C)C)c1CC(=O)NS(=O)(=O)c1ccc(CN(C)C)cc1 [Compound 112, 2-[4-(3-chloro-4-fluorophenyl)-2,6-di(propan-2-yl)phenyl]-N-[4-[(dimethylamino)methyl]phenyl] sulfonylacetamide] as the molecule, how does the pIC50 read?
The pIC50 was 6.00 to 6.70.

With CC(C)c1cc(C2Cc3ccccc3C2)cc(C(C)C)c1CC(=O)NS(=O)(=O)c1ccc(CN(C)C)cc1 [Compound 323, 2-[4-(2,3-dihydro-1H-inden-2-yl)-2,6-bis(propan-2-yl)phenyl]-N-{4-[(dimethylamino)methyl]benzene-sulfonyl}acetamide] as the molecule, how does the pIC50 read?
The pIC50 was 5.30 to 6.00.

CC(C)c1cc(-c2cccc3cccnc23)cc(C(C)C)c1CC(=O)NS(=O)(=O)c1ccc(CN(C)C)cc1 [Compound 114] was tested. Which pIC50 did it give?
The pIC50 was 5.30 to 6.00.

With CC(C)c1cc(C2CCC(C)(C)CC2)cc(C(C)C)c1CC(=O)NS(=O)(=O)c1ccc(CN(C)C)cc1 [Compound 316, N-{4-[(dimethylamino)methyl]benzene-sulfonyl}-2-[4-(4,4-dimethylcyclohexyl)-2,6-bis(propan-2-yl)phenyl]acetamide] as the molecule, how does the pIC50 read?
Its pIC50 is 5.30 to 6.00.

How did the pIC50 turn out when C/C=C(\C)c1cc(C(C)C)c(CC(=O)NS(=O)(=O)c2ccc(CN(C)C)cc2)c(C(C)C)c1 [Compound 145] was run?
Its pIC50 is 5.30 to 6.00.

With C#Cc1cc(C(C)C)c(CC(=O)NS(=O)(=O)c2ccc(C(C)N(C)C)cc2)c(C(C)C)c1 (centres unmarked) [Compound 379] as the molecule, how does the pIC50 read?
The pIC50 was 5.30 to 6.00.

How did the pIC50 turn out when Cc1ccc(-c2cc(C(C)C)c(CC(=O)NS(=O)(=O)c3ccc(CN(C)C)cc3)c(C(C)C)c2)cc1Cl [Compound 117, 2-[4-(3-chloro-4-methylphenyl)-2,6-di(propan-2-yl)phenyl]-N-[4-[(dimethylamino)methyl]phenyl] sulfonylacetamide] was run?
Its pIC50 is 6.00 to 6.70.

How did the pIC50 turn out when CC(C)c1cc(-c2ccc3c(c2)OC(F)(F)O3)cc(C(C)C)c1CC(=O)NS(=O)(=O)c1ccc(CN(C)C)cc1 [Compound 113, 2-[4-(2,2-difluoro-1,3-benzodioxol-5-yl)-2,6-di(propan-2-yl)phenyl]-N-[4-[(dimethylamino)methyl]phenyl] sulfonylacetamide] was run?
The pIC50 was 6.00 to 6.70.

CC(C)c1cc(C2=CCCC2)cc(C(C)C)c1CC(=O)NS(=O)(=O)c1ccc(CN(C)C)cc1 [Compound 107, 2-[4-(cyclopenten-1-yl)-2,6-di(propan-2-yl)phenyl]-N-[4-[(dimethylamino)methyl]phenyl] sulfonylacetamide] was tested. Which pIC50 did it give?
Its pIC50 is 5.30 to 6.00.

With C=C(C)c1cc(C(C)C)c(CC(=O)NS(=O)(=O)c2ccc(CN(C)C)cc2)c(C(C)C)c1 [Compound 147] as the molecule, how does the pIC50 read?
The pIC50 was 5.30 to 6.00.

CC(C)c1cc(-c2ccc(Cl)c(Cl)c2)cc(C(C)C)c1CC(=O)NS(=O)(=O)c1ccc(CN(C)C)cc1 [Compound 119, 2-[4-(3,4-dichlorophenyl)-2,6-di(propan-2-yl)phenyl]-N-[4-[(dimethylamino)methyl]phenyl] sulfonylacetamide] was tested. Which pIC50 did it give?
Its pIC50 is 6.00 to 6.70.

Same assay, conditions: hTHP-1 assay containing 2% fetal bovine serum; average IC50, given as numeric bound; read-out: NLRP3 Antagonist, human THP1 NLRP3, IL-1b, Normalized: GeoMean IC50

With CC(C)c1cc(C(=O)c2ccccc2)cc(C(C)C)c1CC(=O)NS(=O)(=O)c1ccc(CN(C)C)cc1 [Compound 373, 2-[4-benzoyl-2,6-bis(propan-2-yl)phenyl]-N-{4-[(dimethylamino)methyl]benzenesulfonyl}acetamide] as the molecule, how does the pIC50 read?
Its pIC50 is < 4.52.

How did the pIC50 turn out when CC(C)c1cc(C2CCOC2)cc(C(C)C)c1CC(=O)NS(=O)(=O)c1ccc(CN(C)C)cc1 (centres unmarked) [Compound 315, N-{4-[(dimethylamino)methyl]benzene-sulfonyl}-2-[4-(oxolan-3-yl)-2,6-bis(propan-2-yl)phenyl]acetamide] was run?
The pIC50 was < 4.52.

How did the pIC50 turn out when CC(C)c1cc(-c2cnn(C)c2)cc(C(C)C)c1CC(=O)NS(=O)(=O)c1ccc(CN(C)C)cc1 [Compound 106, N-[4-[(dimethylamino)methyl]phenyl] sulfonyl-2-[4-(1-methylpyrazol-4-yl)-2,6-di(propan-2-yl)phenyl] acetamide] was run?
The pIC50 was < 4.52.

How did the pIC50 turn out when CC(C)c1cc(C(O)c2ccccc2)cc(C(C)C)c1CC(=O)NS(=O)(=O)c1ccc(CN(C)C)cc1 (centres unmarked) [Compound 372, N-{4-[(dimethylamino)methyl]benzenesulfonyl}-2-(4-[hydroxy(phenyl)methyl]-2,6-bis(propan-2-yl)phenyl)acetamide] was run?
Its pIC50 is < 4.52.
